Experimental data from paper PMC3917480 (Bioorganic & medicinal chemistry, 2013).
Where a SMILES comes first, the peptide text is derived from it. The star is where a group is joined. X3 = O=C(c1ccc(N2CCNCC2)cn1)*; X5 = CC(C)COc1cccc(CC(=O)*)c1; X6 = CCCOc1cccc(CC(=O)*)c1; X2 = CCOc1cccc(CC(=O)*)c1

What was measured:
CDK4/cyclin D1 = CDK4/cyclin D1 (Homo sapiens, UniProt P24385); experiment: CDK4D1 fluorescence polarization competitive binding assay; settings: for binding affinity (in words), CDK4D1: FLIP context
Sequence of CDK4/cyclin D1 (P24385 whole entry): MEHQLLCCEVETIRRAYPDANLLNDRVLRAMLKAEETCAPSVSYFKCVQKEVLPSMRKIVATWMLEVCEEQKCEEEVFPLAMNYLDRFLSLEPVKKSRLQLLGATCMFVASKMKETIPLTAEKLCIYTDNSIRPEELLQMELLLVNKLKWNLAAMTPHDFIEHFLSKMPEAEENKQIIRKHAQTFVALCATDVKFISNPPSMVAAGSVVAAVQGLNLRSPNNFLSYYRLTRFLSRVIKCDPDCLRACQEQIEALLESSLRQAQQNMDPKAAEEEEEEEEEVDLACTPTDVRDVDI
Sequence of CDK4/cyclin D1 (P11802 whole entry partner): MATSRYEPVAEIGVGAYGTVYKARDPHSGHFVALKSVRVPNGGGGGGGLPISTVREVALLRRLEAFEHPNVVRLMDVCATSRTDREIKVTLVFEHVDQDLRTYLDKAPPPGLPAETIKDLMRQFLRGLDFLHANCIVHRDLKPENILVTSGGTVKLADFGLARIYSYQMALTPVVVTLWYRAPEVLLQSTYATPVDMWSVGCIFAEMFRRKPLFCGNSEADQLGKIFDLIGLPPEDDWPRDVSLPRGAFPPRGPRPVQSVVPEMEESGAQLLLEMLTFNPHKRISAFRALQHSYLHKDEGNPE

CDK2/cyclin A = CDK2/cyclin A (Homo sapiens, UniProt P20248); experiment: CDK2A2 fluorescence polarization competitive binding assay; settings: FLIP context

Structure (SMILES) | increased potency relative to 525 in CDK4D1 (CDK4/cyclin D1; relative to 525) [fold] | binding affinity (in words), CDK2A2 (CDK2/cyclin A) | binding affinity (in words), CDK4D1 (CDK4/cyclin D1)
CC[C@H](C)[C@H](NC(=O)[C@H](CC(C)C)NC(=O)[C@H](CCCNC(=N)N)NC(=O)c1ccc(N2CCNCC2)cn1)C(=O)N[C@@H](Cc1ccccc1)C(N)=O [compound 5856] (X3-RLIF-NH2) | 2 | – | –
CC[C@H](C)[C@H](NC(=O)[C@H](CC(C)C)NC(=O)[C@H](CCCNC(=N)N)NC(=O)Cc1cccc(OCC(C)C)c1)C(=O)N[C@@H](Cc1ccccc1)C(N)=O [compound 5855] (X5-RLIF-NH2) | – | None of these analogs in the FLIP context possessed appreciable binding affinity | None of these analogs in the FLIP context possessed appreciable binding affinity
CCCOc1cccc(CC(=O)N[C@@H](CCCNC(=N)N)C(=O)N[C@@H](CC(C)C)C(=O)N[C@H](C(=O)N[C@@H](Cc2ccccc2)C(N)=O)[C@@H](C)CC)c1 [compound 5853] (X6-RLIF-NH2) | – | None of these analogs in the FLIP context possessed appreciable binding affinity | None of these analogs in the FLIP context possessed appreciable binding affinity
CCOc1cccc(CC(=O)N[C@@H](CCCNC(=N)N)C(=O)N[C@@H](CC(C)C)C(=O)N[C@H](C(=O)N[C@@H](Cc2ccccc2)C(N)=O)[C@@H](C)CC)c1 [compound 5854] (X2-RLIF-NH2) | – | None of these analogs in the FLIP context possessed appreciable binding affinity | None of these analogs in the FLIP context possessed appreciable binding affinity
